Four compounds from ChEMBL document CHEMBL1201862, “PubChem BioAssay data set” (2004) can be followed below.

The structures appear in SMILES notation.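 1) Cells in 96-well plates. 2) Compound, 48 h, 5 concentrations. 3) Linear interpolation between surrounding doses. 4) Unreached endpoint = highest concentration. Abbreviation: GI50, concentration required for 50% inhibition of growth.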 The source made the active and inactive calls. No stated cut-off is given here; in the data, active = GI50 up to about 1.1 µM and inactive = higher.

Test systems include CAKI-1; HCT-15; HL-60; HOP-92; Hs-578T; KM12; LOX IMVI; MCF7; NCI/ADR-RES; OVCAR-3; OVCAR-4; OVCAR-8; RPMI-8226; RXF 393; SK-MEL-2; SK-MEL-5; SK-OV-3; SR; UACC-62; UO-31.
What all share (experiment): DTP human tumour cell line panel, 48 h

The GI50 is the concentration giving 50% growth inhibition.

Consider `Cc1ccc2nnc(NS(=O)(=O)c3cc(C)c(Cl)cc3S)n2n1`, for which the GI50 with CAKI-1 is > 100 µM (inactive); in the assay on HCT-15, above 100 µM; in the assay on HL-60, > 100 µM (inactive); with HOP-92, > 100 µM (inactive); with Hs-578T it was > 100 µM (inactive); with KM12, > 100 µM (inactive). For the same compound, the GI50 in the assay with LOX IMVI, with MCF7, in the assay with NCI/ADR-RES, with OVCAR-3, in the assay with OVCAR-4 and in the assay on OVCAR-8 was > 100 µM (inactive) in each case. Also, the GI50 in the assay on RPMI-8226, in the assay with RXF 393, in the assay with SK-MEL-2, in the assay on SK-MEL-5, in the assay with SK-OV-3 and in the assay on SR was > 100 µM (inactive) throughout. Moreover, the GI50 in the assay with UACC-62 is > 100 µM (inactive); in the assay with UO-31, 68.5 µM (inactive).

Take `CCOC(=O)c1c2cccccc-2nc1Nc1cccc2c(C)ccnc12`: the GI50 was > 10 µM (inactive) in the assay on CAKI-1; 6.31 µM in the assay with HCT-15; 4.47 µM (inactive) in the assay with HL-60; > 10 µM (inactive) in the assay with HOP-92; > 10 µM (inactive) in the assay on Hs-578T; > 10 µM (inactive) in the assay with KM12. The GI50 with LOX IMVI is > 10 µM (inactive); in the assay with MCF7, 8.24 µM (inactive); in the assay with NCI/ADR-RES it was > 10 µM (inactive); in the assay with OVCAR-3, 4.81 µM (inactive); with OVCAR-4 it was 4.82 µM (inactive); in the assay on OVCAR-8, > 10 µM (inactive). In addition, the GI50 with RPMI-8226 is 3.03 µM (inactive); with RXF 393, > 10 µM (inactive); with SK-MEL-2, > 10 µM (inactive); in the assay with SK-MEL-5, > 10 µM (inactive); in the assay with SK-OV-3 it was > 10 µM (inactive); in the assay on SR, 9.95 µM (inactive). Besides, the GI50 in the assay with UACC-62 is 9.77 µM (inactive); in the assay with UO-31, 9.16 µM (inactive).

As for `CCOC(=O)c1nc2ccccc2nc1Nc1ccc(F)cc1`, the GI50 with CAKI-1 is 39.5 µM (inactive); in the assay with HCT-15, 57.5 µM; with HL-60 it was > 100 µM (inactive); in the assay on HOP-92, 15.7 µM (inactive); in the assay with Hs-578T, 10.2 µM (inactive); in the assay with KM12, > 100 µM (inactive). In addition, the GI50 with LOX IMVI is 79.4 µM (inactive); in the assay with MCF7, > 60.8 µM (inactive); in the assay on NCI/ADR-RES, 16.7 µM (inactive); in the assay with OVCAR-3, > 72.4 µM (inactive); in the assay with OVCAR-4, > 100 µM (inactive); in the assay with OVCAR-8, 11.5 µM (inactive). Further, the GI50 was > 100 µM (inactive) in the assay with RPMI-8226; 11.9 µM (inactive) in the assay with RXF 393; 23.6 µM (inactive) in the assay with SK-MEL-2; > 100 µM (inactive) with SK-MEL-5; 11.7 µM (inactive) in the assay with SK-OV-3; > 100 µM (inactive) in the assay with SR. Also, the GI50 with UACC-62 was > 100 µM (inactive); in the assay with UO-31, > 94.4 µM (inactive).

On to `C=CC(=O)C#Cc1cnc(OC)nc1OC`, for which the GI50 in the assay on CAKI-1 was 7.29 µM (inactive); in the assay on HCT-15 it was 10.7 µM; in the assay with HL-60, 1.09 µM (active); with HOP-92, 1.39 µM (inactive); in the assay on Hs-578T, 33.3 µM (inactive); in the assay on KM12, 13.4 µM (inactive). Further, the GI50 in the assay with LOX IMVI is 5.46 µM (inactive); with MCF7, 5.13 µM (inactive); with NCI/ADR-RES, 31.3 µM (inactive); with OVCAR-3 it was 18.2 µM (inactive); in the assay with OVCAR-4 it was 20.8 µM (inactive); in the assay on OVCAR-8, 26.7 µM (inactive). Also, the GI50 in the assay with RPMI-8226 is 1.6 µM (inactive); in the assay on RXF 393 it was 25.2 µM (inactive); in the assay with SK-MEL-2 it was 22.1 µM (inactive); in the assay on SK-MEL-5, 15.2 µM (inactive); in the assay with SK-OV-3, > 100 µM (inactive); with SR, 2.49 µM (inactive). The GI50 in the assay on UACC-62 was 16.1 µM (inactive); with UO-31 it was 16.9 µM (inactive).
